{"source": "patent US20090311237A1", "about": "“Combination therapy using a soluble hyaluronidase and a bisphosphonate” (priority 2008, published 2009)", "assay": "Phase 1 Stage 1 clinical pharmacokinetics of SC ZA co-administered with rHuPH20", "type": "in vivo, human", "design": "key to Mean Conc. / Median Conc.: BLQ = blow limit for quantitation", "settings": "serum; for Zoledronic Acid Concentration: individual subjects; for Mean Conc. / Median Conc.: n=3", "protocol": "A pharmacokinetic study of zoledronic acid (ZA) co-administered with rHuPH20 in human subjects was conducted. The primary objective of the study was to determine the bioavailability of zoledronic acid dosed via subcutaneous (SC) co-administration with human recombinant hyaluronidase PH20 (rHuPH20). […] The patients were administered the prescribed dosage formulations as follows: Cohorts 1-5 were administered a single subcutaneous infusion in a dosage volume of 100 ml at a rate of 3 mL/min. […] The dosing solution is administered via needle or catheter into the SC space of the left anterior thigh (midway between the anterior iliac crest and the cephalad border of the patella). For cohorts 1-5, the dosing solutions were administered by a controlled rate infusion pump at approximately 3 mL/minute. […] The dosing solutions were administered by syringe push bolus injection. […] Serum concentration of ZA was determined using a qualified LC-MS-MS assay after derivatization with diazomethane (Zhu, L S et al. (2006) Rapid Commun. […] The assay range was from 2.0 to 400 ng/mL with a lower limit of quantitation (LLOQ) at 2.0 ng/mL. […] Non-compartmental analysis was used for derivation of primary and secondary pharmacokinetic (PK) parameters. […] Summary statistics (mean, standard deviation, and median) were calculated using JMP or Microsoft Excel.", "key": {"[1]": {"settings": "ZA 0.5 mg SC infusion + 24000 Units rHuPH20, 24 h post infusion"}, "[2]": {"settings": "ZA 0.5 mg SC infusion + 24000 Units rHuPH20, 48 h post infusion"}, "[3]": {"settings": "ZA 1 mg SC infusion + 24000 Units rHuPH20, 48 h post infusion"}}, "note": "Several values for one entry are separate records, joined by “and”; a condition that tells them apart may be missing. Identical values can stand only once.", "data": [{"compound": "O=P(O)(O)C(O)(Cn1ccnc1)P(=O)(O)O", "note": "[ZA, 1-hydroxy-2-(1H-imidazol-1-yl)ethylidene-1,1-bisphosphonic acid]", "values": [{"measurement": "Zoledronic Acid Concentration", "setting": "ZA 0.5 mg SC infusion + 24000 Units rHuPH20, 10 min post infusion, listed as Zoledronic Acid", "value": 16.80, "unit": "ng/mL"}, {"measurement": "Zoledronic Acid Concentration", "setting": "ZA 0.5 mg SC infusion + 24000 Units rHuPH20, 0.5 h post infusion, listed as Zoledronic Acid", "value": 16.50, "unit": "ng/mL"}, {"measurement": "Zoledronic Acid Concentration", "setting": "ZA 0.5 mg SC infusion + 24000 Units rHuPH20, 1 h post infusion, listed as Zoledronic Acid", "value": 15.00, "unit": "ng/mL"}, {"measurement": "Zoledronic Acid Concentration", "setting": "[1]", "value": "BLQ < (0.500) ng/mL"}, {"measurement": "Mean Conc.", "setting": "[1]", "value": "BLQ"}, {"measurement": "Median Conc.", "setting": "[1]", "value": "BLQ"}, {"measurement": "Zoledronic Acid Concentration", "setting": "[2]", "value": "BLQ < (0.500) ng/mL"}, {"measurement": "Mean Conc.", "setting": "[2]", "value": "BLQ"}, {"measurement": "Median Conc.", "setting": "[2]", "value": "BLQ"}, {"measurement": "Zoledronic Acid Concentration", "setting": "ZA 1 mg SC infusion + 24000 Units rHuPH20, 0 h post infusion, listed as Zoledronic Acid", "value": 15.30, "unit": "ng/mL"}, {"measurement": "Zoledronic Acid Concentration", "setting": "ZA 1 mg SC infusion + 24000 Units rHuPH20, 10 min post infusion, listed as Zoledronic Acid", "value": 25.00, "unit": "ng/mL"}, {"measurement": "Zoledronic Acid Concentration", "setting": "ZA 1 mg SC infusion + 24000 Units rHuPH20, 0.5 h post infusion, listed as Zoledronic Acid", "value": 23.00, "unit": "ng/mL"}, {"measurement": "Zoledronic Acid Concentration", "setting": "ZA 1 mg SC infusion + 24000 Units rHuPH20, 1 h post infusion, listed as Zoledronic Acid", "value": 19.40, "unit": "ng/mL"}, {"measurement": "Zoledronic Acid Concentration", "setting": "ZA 1 mg SC infusion + 24000 Units rHuPH20, 2 h post infusion, listed as Zoledronic Acid", "value": 17.00, "unit": "ng/mL"}, {"measurement": "Zoledronic Acid Concentration", "setting": "ZA 1 mg SC infusion + 24000 Units rHuPH20, 4 h post infusion, listed as Zoledronic Acid", "value": 10.20, "unit": "ng/mL"}, {"measurement": "Zoledronic Acid Concentration", "setting": "ZA 1 mg SC infusion + 24000 Units rHuPH20, 6 h post infusion, listed as Zoledronic Acid", "value": 5.47, "unit": "ng/mL"}, {"measurement": "Zoledronic Acid Concentration", "setting": "ZA 1 mg SC infusion + 24000 Units rHuPH20, 8 h post infusion, listed as Zoledronic Acid", "value": 3.17, "unit": "ng/mL"}, {"measurement": "Zoledronic Acid Concentration", "setting": "ZA 1 mg SC infusion + 24000 Units rHuPH20, 12 h post infusion, listed as Zoledronic Acid", "value": 1.30, "unit": "ng/mL"}, {"measurement": "Zoledronic Acid Concentration", "setting": "ZA 1 mg SC infusion + 24000 Units rHuPH20, 24 h post infusion, listed as Zoledronic Acid", "value": 0.51, "unit": "ng/mL"}, {"measurement": "Zoledronic Acid Concentration", "setting": "[3]", "value": "BLQ < (0.500) ng/mL"}, {"measurement": "Mean Conc.", "setting": "[3]", "value": "BLQ"}, {"measurement": "Median Conc.", "setting": "[3]", "value": "BLQ"}, {"measurement": "Zoledronic Acid Concentration", "setting": "ZA 2 mg SC infusion + 24000 Units rHuPH20, 0 h post infusion, listed as Zoledronic Acid", "value": "39.60 ng/mL and 40.80 ng/mL"}, {"measurement": "Zoledronic Acid Concentration", "setting": "ZA 2 mg SC infusion + 24000 Units rHuPH20, 10 min post infusion, listed as Zoledronic Acid", "value": "46.30 ng/mL and 46.00 ng/mL"}, {"measurement": "Zoledronic Acid Concentration", "setting": "ZA 2 mg SC infusion + 24000 Units rHuPH20, 0.5 h post infusion, listed as Zoledronic Acid", "value": "47.30 ng/mL and 48.60 ng/mL"}, {"measurement": "Zoledronic Acid Concentration", "setting": "ZA 2 mg SC infusion + 24000 Units rHuPH20, 1 h post infusion, listed as Zoledronic Acid", "value": "53.00 ng/mL and 58.70 ng/mL"}, {"measurement": "Zoledronic Acid Concentration", "setting": "ZA 2 mg SC infusion + 24000 Units rHuPH20, 2 h post infusion, listed as Zoledronic Acid", "value": "40.10 ng/mL and 42.20 ng/mL"}, {"measurement": "Zoledronic Acid Concentration", "setting": "ZA 2 mg SC infusion + 24000 Units rHuPH20, 4 h post infusion, listed as Zoledronic Acid", "value": "20.30 ng/mL and 23.00 ng/mL"}, {"measurement": "Zoledronic Acid Concentration", "setting": "ZA 2 mg SC infusion + 24000 Units rHuPH20, 6 h post infusion, listed as Zoledronic Acid", "value": "7.71 ng/mL and 8.93 ng/mL"}, {"measurement": "Zoledronic Acid Concentration", "setting": "ZA 2 mg SC infusion + 24000 Units rHuPH20, 8 h post infusion, listed as Zoledronic Acid", "value": "3.34 ng/mL and 4.81 ng/mL"}, {"measurement": "Zoledronic Acid Concentration", "setting": "ZA 2 mg SC infusion + 24000 Units rHuPH20, 12 h post infusion, listed as Zoledronic Acid", "value": "1.64 ng/mL and 2.07 ng/mL"}, {"measurement": "Zoledronic Acid Concentration", "setting": "ZA 2 mg SC infusion + 24000 Units rHuPH20, 24 h post infusion, listed as Zoledronic Acid", "value": "0.85 ng/mL and 0.98 ng/mL"}, {"measurement": "Zoledronic Acid Concentration", "setting": "ZA 2 mg SC infusion + 24000 Units rHuPH20, 48 h post infusion, listed as Zoledronic Acid", "value": "BLQ < (0.500) ng/mL"}, {"measurement": "Median Conc.", "setting": "ZA 2 mg SC infusion + 24000 Units rHuPH20, 48 h post infusion", "value": "BLQ"}, {"measurement": "Zoledronic Acid Concentration", "setting": "ZA 5 mg SC infusion + 24000 Units rHuPH20, 0 h post infusion, listed as Zoledronic Acid", "value": "82.30 ng/mL and 53.50 ng/mL and 130.00 ng/mL"}, {"measurement": "Zoledronic Acid Concentration", "setting": "ZA 5 mg SC infusion + 24000 Units rHuPH20, 10 min post infusion, listed as Zoledronic Acid", "value": "76.10 ng/mL and 132.00 ng/mL"}, {"measurement": "Zoledronic Acid Concentration", "setting": "ZA 5 mg SC infusion + 24000 Units rHuPH20, 0.5 h post infusion, listed as Zoledronic Acid", "value": "112.00 ng/mL and 132.00 ng/mL"}, {"measurement": "Zoledronic Acid Concentration", "setting": "ZA 5 mg SC infusion + 24000 Units rHuPH20, 1 h post infusion, listed as Zoledronic Acid", "value": "113.00 ng/mL and 116.00 ng/mL"}, {"measurement": "Zoledronic Acid Concentration", "setting": "ZA 5 mg SC infusion + 24000 Units rHuPH20, 2 h post infusion, listed as Zoledronic Acid", "value": "89.80 ng/mL and 86.50 ng/mL"}, {"measurement": "Zoledronic Acid Concentration", "setting": "ZA 5 mg SC infusion + 24000 Units rHuPH20, 4 h post infusion, listed as Zoledronic Acid", "value": "42.80 ng/mL and 61.70 ng/mL"}, {"measurement": "Zoledronic Acid Concentration", "setting": "ZA 5 mg SC infusion + 24000 Units rHuPH20, 6 h post infusion, listed as Zoledronic Acid", "value": "22.30 ng/mL and 27.80 ng/mL"}, {"measurement": "Zoledronic Acid Concentration", "setting": "ZA 5 mg SC infusion + 24000 Units rHuPH20, 8 h post infusion, listed as Zoledronic Acid", "value": "11.00 ng/mL and 12.50 ng/mL"}, {"measurement": "Zoledronic Acid Concentration", "setting": "ZA 5 mg SC infusion + 24000 Units rHuPH20, 12 h post infusion, listed as Zoledronic Acid", "value": "4.61 ng/mL and 5.00 ng/mL"}, {"measurement": "Zoledronic Acid Concentration", "setting": "ZA 5 mg SC infusion + 24000 Units rHuPH20, 24 h post infusion, listed as Zoledronic Acid", "value": "2.98 ng/mL and 2.23 ng/mL"}, {"measurement": "Zoledronic Acid Concentration", "setting": "ZA 5 mg SC infusion + 24000 Units rHuPH20, 48 h post infusion, listed as Zoledronic Acid", "value": "1.63 ng/mL and 1.74 ng/mL"}]}]}
